# Measurements reported in patent US4746349A, “Method and compositions for suppressing the nitrification of ammonium in plant growth medium” (American Cyanamid Company, priority 1986, dated 1988).
# Values joined by “and” are separate entries in the source; they are usually repeats but may differ in a detail not shown here. Equal entries are not always repeated.
# What was measured:
# Nitrobacter spp. = assay: Nitrite nitrogen in ammonium amended soil incubated at 25° C.; conditions: soil 25° C., 200 ppm N
# Description: Determination of nitrite nitrogen and nitrate nitrogen in soil prepared in Example 1 above, which is amended with 200 ppm of nitrogen as aqueous ammonium sulfate, […], is determined using the nitrite and nitrate analysis of the American Organization of Analytical Chemists (AOAC pp. 653-655).
# Nitrosomonas spp. = assay: Nitrification of ammonium in soil incubated at 25° C. (ammonium recovery, nitrate accumulation); conditions: soil 25° C.; for Concentration of nitrate nitrogen / Recovery of Ammonium Nitrogen: 200 ppm N
# Description: In these evaluations, one hundred grams (100 g) of oven dry, silt loam field soil with low residual nitrogen is added to a 6×12 cm screw-capped glass jar for each sampling date to provide an optimum environment for nitrification.
# Two replicates of each treatment-sampling date are established. The soil is adjusted to 50% water saturation with an aqueous solution of ammonium sulfate at 200 ppm N and the chemical to be tested as a nitrification inhibitor at rates of from 0.10 to 0.50 ppm.
# Incubation is at either 25° C. or 38° C. for 0, 1, 2, 4, 7, 9, 12, 16 or 20 weeks. Inorganic N is extracted by adding 2M KCl (10:1 v/w) and shaking for one hour, allowing settling for fifteen minutes. A 10 ml aliquot from the supernatant is assayed for ammonium, nitrite and nitrate by standard steam distillation methods (AOAC, pp. 653-655). Nitrapyrin (0.5 ppm) is used as a nitrification inhibitor for comparison. Benzyl alcohol, acetone, and a non-N amended soil are run as controls and as a check on mineralization.
# Nitrification: Ammonium recovery and nitrate accumulation are indicative of nitrification, and data obtained with test compounds are reported in Tables I and II.
# [1] = tested on: corn (Dekalb T2000, B73×LH 38); assay: Field evaluation: corn ear leaf tissue nitrogen, silt loam plots; assay type: in vivo; conditions: for Corn Leaf Tissue Analysis (total N): ear leaf at silking
# Text: (§1) Field Evaluation: Field evaluations are based on the N content of corn leaf tissue and grain yield utilizing two soil types. Replicate (4X) field plots are established at two different locations, one having (I) silt loam soil and one (II) with sandy loam soil. These soils had been previously cropped to non-fertilized corn to reduce the level of residual N. Maduramicin monoammonium salt is applied (0.25, 0.125, 0.07 ppm) with NH3 (84 or 168 kg N/ha) through a "downstream" by an injection system into silt loam plots. Nitrapyrin (0.25 ppm=0.56 kg a.i./ha), nitrogen checks, benzyl alcohol (1.16L/ha) (BA) and a O nitrogen check are included for comparison. Individual replicate plot sizes are 3.04M×22.8M (4, 76-cm corn rows×22.8M long) Anhydrous ammonia are injected on 76-cm centers.
# (§2) Urea, treated or non-treated with Maduramicin monoammonium salt is broadcast on the surface of sandy loam plots. Plots are then planted with corn the day following treatment. Dekalb T2000 is planted 10 May on silt loam plots and Pioneer 3352 is planted 11 May in sandy loam plots.
# (§3) Corn ear leaf tissues collected at silking on silt loam plots or 60 days post silking (on silt loam and sandy loam plots) are collected from each plot and assayed for total N (AOAC procedures). Grain yields are determined by harvesting the two center rows×15.2 m of each plot.
# [2] = tested on: corn (Dekalb T2000, B73×LH 38); assay: Field evaluation: yield of corn, silt loam location; assay type: in vivo
# Text: as §1, §2, §3
# corn (Pioneer 3352) = assay: Field evaluation: yield of corn, sandy loam plots; assay type: in vivo; conditions: sandy loam
# Text: as §1
# Plots are then planted with corn the day following treatment. Dekalb T2000 is planted 10 May on silt loam plots and Pioneer 3352 is planted 11 May in sandy loam plots.
# as §3
# Nitrosomonos = assay: Nitrification of ammonium amended field soil incubated at 38° C. (ammonium recovery, nitrate); conditions: 0.50 ppm, soil 38° C., 200 ppm N
# Description: (§4) Determination of Nitrification Inhibition of Soil amended with 200 ppm of nitrogen as ammonium sulfate and 0.5 ppm of Nitrapyrin or 0.5 ppm of Maduramicin, monoammonium salt.
# (§5) Soil samples prepared as described in Example 1 above are incubated at 38° C. for 20 weeks. Samples are taken at intervals during the 20 week period, extracted with 2M KCl (10:1 v/w), and assayed for ammonium nitrite and nitrate by standard steam distillation methods.
# Nitrabacter = assay: Nitrite in ammonium amended field soil incubated at 38° C.; conditions: 0.50 ppm, soil 38° C., 200 ppm N
# Description: as §4, §5
# Urease = Urease activity of urea amended soil, 38° C., 24 hrs; assay type: biochemical
# Description: Urease activity: Five grams (5 g) oven-dry soil is treated with 5 ml of aqueous urea solution (1000 ug/g soil), with or without the test compound, and incubated in 65 ml screw-capped glass bottles at 38° C. for 24 hrs. Three replicates of each treatment are established. Phenylphosphorodiamide (PPD) is used as a urease inhibitor for comparison with Maduramicin monoammonium salt. Urea remaining is determined after extracting the soil for 60 minutes (with shaking) with 50 ml of 2M KCl containing 0.5 ug/ml of phenylmercuric acetate and filtering the soil suspension. Urea in the extract is determined colorimetrically (Douglas & Bremner, 1970). The percentage inhibition is calculated from (A-B)/(C-B) X 100-% inhibition; where A=the amount of urea found after incubation with the compound, B=the amount of urea found in the non-treated soil, and C=the amount of urea added.
smiles,measurement,setting,value
OCc1ccccc1 [Benzyl Alcohol],Concentration of nitrite nitrogen,"Nitrobacter spp.; 5%, week 0",6 ppm
same,Concentration of nitrite nitrogen,"Nitrobacter spp.; 5%, week 1",5 ppm
same,Concentration of nitrite nitrogen,"Nitrobacter spp.; 5%, week 2",5 ppm
same,Concentration of nitrite nitrogen,"Nitrobacter spp.; 5%, week 4",6 ppm
same,Concentration of nitrite nitrogen,"Nitrobacter spp.; 5%, week 7",3 ppm
same,Concentration of nitrite nitrogen,"Nitrobacter spp.; 5%, week 9",-1 ppm
same,Concentration of nitrite nitrogen,"Nitrobacter spp.; 5%, week 12",5 ppm
same,Concentration of nitrite nitrogen,"Nitrobacter spp.; 5%, week 16",1 ppm
same,Concentration of nitrite nitrogen,"Nitrobacter spp.; 5%, week 20",27 ppm
same,"Effect on nitrification, in words",Nitrosomonas spp.; 5%,markedly inhibited nitrification throughout the incubation period
same,Concentration of nitrate nitrogen,"Nitrosomonas spp.; 5%, week 0",19 PPM
same,Recovery of Ammonium Nitrogen,"Nitrosomonas spp.; 5%, week 0",194 PPM
same,Concentration of nitrate nitrogen,"Nitrosomonas spp.; 5%, week 1",21 PPM
same,Recovery of Ammonium Nitrogen,"Nitrosomonas spp.; 5%, week 1",163 PPM
same,Concentration of nitrate nitrogen,"Nitrosomonas spp.; 5%, week 2",16 PPM
same,Recovery of Ammonium Nitrogen,"Nitrosomonas spp.; 5%, week 2",163 PPM
same,Concentration of nitrate nitrogen,"Nitrosomonas spp.; 5%, week 4",20 PPM
same,Recovery of Ammonium Nitrogen,"Nitrosomonas spp.; 5%, week 4",168 PPM
same,Concentration of nitrate nitrogen,"Nitrosomonas spp.; 5%, week 7",15 PPM
same,Recovery of Ammonium Nitrogen,"Nitrosomonas spp.; 5%, week 7",164 PPM
same,Concentration of nitrate nitrogen,"Nitrosomonas spp.; 5%, week 9",99 PPM
same,Recovery of Ammonium Nitrogen,"Nitrosomonas spp.; 5%, week 9",41 PPM
same,Concentration of nitrate nitrogen,"Nitrosomonas spp.; 5%, week 12",19 PPM
same,Recovery of Ammonium Nitrogen,"Nitrosomonas spp.; 5%, week 12",163 PPM
same,Concentration of nitrate nitrogen,"Nitrosomonas spp.; 5%, week 16",27 PPM
same,Recovery of Ammonium Nitrogen,"Nitrosomonas spp.; 5%, week 16",169 PPM
same,Concentration of nitrate nitrogen,"Nitrosomonas spp.; 5%, week 20",20 PPM
same,Recovery of Ammonium Nitrogen,"Nitrosomonas spp.; 5%, week 20",139 PPM
same,Corn Leaf Tissue Analysis (total N),"[1]; 1.1 l/ha, NH3 168 kg N/ha",271 10^2 ug/g
same,AVERAGE YIELD 4-REPLICATES,"[2]; N 168 kg/ha, chemical 1.2 l/ha",140.9 HECTOLITERS/HECTARE
same,AVERAGE YIELD 4-REPLICATES,"corn (Pioneer 3352); N 168 kg/ha as NH3, chemical 1.2 l/ha",165.3 HECTOLITERS/HECTARE
Clc1cccc(C(Cl)(Cl)Cl)n1 [Nitrapyrin],Concentration of nitrite nitrogen,"Nitrobacter spp.; 0.50 ppm, week 0",6 ppm
same,Concentration of nitrite nitrogen,"Nitrobacter spp.; 0.50 ppm, week 1",6 ppm
same,Concentration of nitrite nitrogen,"Nitrobacter spp.; 0.50 ppm, week 2",3 ppm
same,Concentration of nitrite nitrogen,"Nitrobacter spp.; 0.50 ppm, week 4",5 ppm
same,Concentration of nitrite nitrogen,"Nitrobacter spp.; 0.50 ppm, week 7",-1 ppm
same,Concentration of nitrite nitrogen,"Nitrobacter spp.; 0.50 ppm, week 9",8 ppm
same,Concentration of nitrite nitrogen,"Nitrobacter spp.; 0.50 ppm, week 12",-10 ppm
same,Concentration of nitrite nitrogen,"Nitrobacter spp.; 0.50 ppm, week 16",15 ppm
same,Concentration of nitrite nitrogen,"Nitrobacter spp.; 0.50 ppm, week 20",34 ppm
same,Nitrification (percent nitrified),"Nitrosomonas spp.; 0.50 ppm, by the 16th week",65%
same,Nitrification (percent nitrified),"Nitrosomonas spp.; 0.50 ppm, by the 20th week",87%
same,Time through which nitrification is delayed or inhibited,Nitrosomonas spp.; 0.5 ppm,12 weeks
same,Concentration of nitrate nitrogen,"Nitrosomonas spp.; 0.50 ppm, week 0",18 PPM
same,Recovery of Ammonium Nitrogen,"Nitrosomonas spp.; 0.50 ppm, week 0",193 PPM
same,Concentration of nitrate nitrogen,"Nitrosomonas spp.; 0.50 ppm, week 1",11 PPM
same,Recovery of Ammonium Nitrogen,"Nitrosomonas spp.; 0.50 ppm, week 1",155 PPM
same,Concentration of nitrate nitrogen,"Nitrosomonas spp.; 0.50 ppm, week 2",23 PPM
same,Recovery of Ammonium Nitrogen,"Nitrosomonas spp.; 0.50 ppm, week 2",177 PPM
same,Concentration of nitrate nitrogen,"Nitrosomonas spp.; 0.50 ppm, week 4",21 PPM
same,Recovery of Ammonium Nitrogen,"Nitrosomonas spp.; 0.50 ppm, week 4",185 PPM
same,Concentration of nitrate nitrogen,"Nitrosomonas spp.; 0.50 ppm, week 7",25 PPM
same,Recovery of Ammonium Nitrogen,"Nitrosomonas spp.; 0.50 ppm, week 7",188 PPM
same,Concentration of nitrate nitrogen,"Nitrosomonas spp.; 0.50 ppm, week 9",39 PPM
same,Recovery of Ammonium Nitrogen,"Nitrosomonas spp.; 0.50 ppm, week 9",174 PPM
same,Concentration of nitrate nitrogen,"Nitrosomonas spp.; 0.50 ppm, week 12",49 PPM
same,Recovery of Ammonium Nitrogen,"Nitrosomonas spp.; 0.50 ppm, week 12",184 PPM
same,Concentration of nitrate nitrogen,"Nitrosomonas spp.; 0.50 ppm, week 16",148 PPM
same,Recovery of Ammonium Nitrogen,"Nitrosomonas spp.; 0.50 ppm, week 16",70 PPM
same,Concentration of nitrate nitrogen,"Nitrosomonas spp.; 0.50 ppm, week 20",163 PPM
same,Recovery of Ammonium Nitrogen,"Nitrosomonas spp.; 0.50 ppm, week 20",25 PPM
same,Corn Leaf Tissue Analysis (total N),"[1]; inhibitor 0.56 kg/ha, NH3 84 kg N/ha",232 10^2 ug/g
same,Corn Leaf Tissue Analysis (total N),"[1]; inhibitor 0.56 kg/ha, NH3 168 kg N/ha",291 10^2 ug/g
same,More nitrogen in leaf tissue than control plots with similar nitrogen,[1]; silt loam plots,15-25%
same,"Ammonium Recovery, reported as nitrogen",Nitrosomonos; week 0,194 ppm
same,"Nitrate, reported as nitrogen",Nitrosomonos; week 0,20 ppm
same,"Ammonium Recovery, reported as nitrogen",Nitrosomonos; week 1,188 ppm
same,"Nitrate, reported as nitrogen",Nitrosomonos; week 1,18 ppm
same,"Ammonium Recovery, reported as nitrogen",Nitrosomonos; week 2,195 ppm
same,"Nitrate, reported as nitrogen",Nitrosomonos; week 2,15 ppm
same,"Ammonium Recovery, reported as nitrogen",Nitrosomonos; week 4,200 ppm
same,"Nitrate, reported as nitrogen",Nitrosomonos; week 4,22 ppm
same,"Ammonium Recovery, reported as nitrogen",Nitrosomonos; week 7,179 ppm
same,"Nitrate, reported as nitrogen",Nitrosomonos; week 7,48 ppm
same,"Ammonium Recovery, reported as nitrogen",Nitrosomonos; week 9,141 ppm
same,"Nitrate, reported as nitrogen",Nitrosomonos; week 9,79 ppm
same,"Ammonium Recovery, reported as nitrogen",Nitrosomonos; week 12,125 ppm
same,"Nitrate, reported as nitrogen",Nitrosomonos; week 12,114 ppm
same,"Ammonium Recovery, reported as nitrogen",Nitrosomonos; week 16,127 ppm
same,"Nitrate, reported as nitrogen",Nitrosomonos; week 16,126 ppm
same,"Ammonium Recovery, reported as nitrogen",Nitrosomonos; week 20,91 ppm
same,"Nitrate, reported as nitrogen",Nitrosomonos; week 20,128 ppm
same,AVERAGE YIELD 4-REPLICATES,"[2]; N 84 kg/ha, chemical 0.56 kg/ha",133.4 HECTOLITERS/HECTARE
same,AVERAGE YIELD 4-REPLICATES,"[2]; N 168 kg/ha, chemical 0.56 kg/ha",148.8 HECTOLITERS/HECTARE
same,AVERAGE YIELD 4-REPLICATES,"corn (Pioneer 3352); N 84 kg/ha as NH3, chemical 0.56 kg/ha",160.1 HECTOLITERS/HECTARE
same,AVERAGE YIELD 4-REPLICATES,"corn (Pioneer 3352); N 168 kg/ha as NH3, chemical 0.56 kg/ha",167.0 HECTOLITERS/HECTARE
same,"Nitrite, reported as nitrogen",Nitrabacter; week 0,6 ppm
same,"Nitrite, reported as nitrogen",Nitrabacter; week 1,3 ppm
same,"Nitrite, reported as nitrogen",Nitrabacter; week 2,12 ppm
same,"Nitrite, reported as nitrogen",Nitrabacter; week 4,9 ppm
same,"Nitrite, reported as nitrogen",Nitrabacter; week 7,-27 ppm
same,"Nitrite, reported as nitrogen",Nitrabacter; week 9,14 ppm
same,"Nitrite, reported as nitrogen",Nitrabacter; week 12,14 ppm
same,"Nitrite, reported as nitrogen",Nitrabacter; week 16,7 ppm
same,"Nitrite, reported as nitrogen",Nitrabacter; week 20,27 ppm
"NP(N)(=O)Oc1ccccc1 [PPD, Phenylphosphorodiamide]",% INHIBITION (urease),"Urease; (A-B)/(C-B) X 100, urea 1000 ug/g soil",63%
same,AVERAGE amount of urea remaining,"Urease; average of 3 replicates, urea 1000 ug/g soil",769 µg/g
same,AMOUNT REMAINING (urea),"Urease; single replicates, urea 1000 ug/g soil",755 µg/g and 767 µg/g and 770 µg/g
